Measured values: patent US20220241261A1, “COMBINATIONS OF INHIBITORS OF IRAK4 WITH INHIBITORS OF BTK” (Bayer Pharma Aktiengesellschaft, priority 2015, published 2022)

Tests used:
[1] = test system: ABC-DLBCL cell lines TMD-8 and HBL-1 and OCI-LY10; assay: Cell proliferation measurement (Cell Titer Glo, combination, isobolograms); assay type: cell-based, human; settings: combination with ibrutinib or RN486 or AVL-292 or CGI-1746; TMD-8, HBL-1, OCI-LY10 cells; 72 h
Protocol: The antiproliferative activity of the compounds of the general formula (I) as constituents of the inventive combinations was examined in vitro in human ABC-DLBCL cells. […] After 24 h, cells on one plate (0 h plate) were treated with 30 μl/cavity of CTG solution (Promega Cell Titer Glo (catalogue #G755B and G756B)) and incubated at room temperature for 10 min, and luminescence was measured by means of a VICTOR V (Perkin Elmer), in order to determine cell viability on commencement of treatment. The cells on the test plate were treated with the compounds of the general formula (I) as constituents of the inventive combinations and incubated at 37° C. for 72 h. […] As control, the cells were treated with vehicle (DMSO). After 72 h, the cells were treated with 30 μl/cavity of CTG solution (Promega Cell Titer Glo (catalogue #G755B and G756B)) and incubated at room temperature for 10 min, and luminescence was measured by means of a VICTOR V (Perkin Elmer), in order to determine cell viability at the end of treatment. […] The IC50 values were calculated using a 4-parameter fit. The combinatorial effect to test substances was determined on the basis of the above-described IC50 determination. […] This index allows a quantitative determination of substance interactions. A CI<1, =1, and >1 respectively describe synergistic, additive and antagonistic effects. […]

[2] = test system: secretion of TNF-α in THP-1 cells; assay: TNF-α secretion in THP-1 cells (LPS-triggered, HTRF); assay type: cell-based; settings: Homo sapiens, LPS stimulation, 17 h, read-out: IC50 with respect to the secretion of TNF-α in THP-1 cells
Protocol: With the aid of this test, it is possible to test substances for their ability to inhibit secretion of TNF-α (tumour necrosis factor alpha) in THP-1 cells (human monocytic acute leukaemia cell line). […] In this test, TNF-α secretion is triggered by incubation with bacterial lipopolysaccharide (LPS).
The cells were incubated at room temperature for 15 min. 2-2.5 of 0.1 μg/ml LPS (Sigma, Escherichia coli 055:B5, Cat. No. L5418) dissolved in cell culture medium (final concentration 0.05 ag/ml) were then dispensed into each well. As a neutral control, cells were treated with 0.05 ag/ml LPS and 1% DMSO and, as inhibitor control, only once with 1% DMSO.
The amount of TNF-α was determined using the TNF-alpha HTRF Detection Kit (Cisbio, Cat No. 62TNFPEB/C). To this end, in each case 2 μl of the detection solution consisting of anti-TNF-α-XL665 conjugate and anti-TNF-α-cryptate conjugate, dissolved in accordance with the manufacturer's instructions in the reconstitution buffer, were added for the HTRF (Homogeneous Time-Resolved Fluorescence) test. After the addition, the mixture was incubated either at room temperature for 3 h or at 4° C. overnight.
The activity of the substances is expressed as the ratio between neutral and inhibitor control in percent. The IC50 values were calculated using a 4-parameter fit.

relapsed DLBCL = settings: phase 2 study; cited from earlier work
[3] = test system: human TMD-8 ABC-DLBCL tumours; settings: TMD-8 xenograft, C.B-17 SCID mice, ibrutinib 10 mg/kg
Protocol: The anti-tumour activity of the compounds of the general formula (I) as constituents of the inventive combinations was examined in murine xenotransplantation models. For this purpose, female C.B-17 SCID mice were implanted subcutaneously with tumour cell lines of human B-cell lymphoma, e.g. TMD-8. At a mean tumour size of 20-30 mm^2, monotherapeutic treatment or treatment in combination with the standard ibrutinib treatment commenced, each of which were administered orally. This was preceded by randomization of the animals. […] The tumour size and the body weight were determined weekly for three weeks. Changes in the body weight were a measure of treatment-related toxicity (>10%=critical, stoppage in treatment until recovery, >20%=toxic, termination). The tumour area was detected by means of an electronic caliper gauge [length (mm)×width (mm)]. The anti-tumour efficacy defined the ratio of the tumour area of treatment versus control [tumour area of the treatment group on day X/tumour area of the control group on day X]. […] Statistical analysis was effected using single-factor ANOVA and comparison with the control group by means of pair-by-pair comparative analysis (Dunnett's test).
TMD-8 tumour cells were implanted subcutaneously on day 0 into female C.B-17 SCID mice. The treatment was started on day 15 at a tumour area of about 26 mm^2. […]

| Compound | antitumour (anti-proliferative) action of the combination compared to single treatments [1] | IC50 [2] | patients responded to treatment (relapsed DLBCL) | Max. weight loss ([3]; QD p.o., Example 11 40 mg/kg, change versus initial body weight) | effect on the tumour growth of TMD-8 (in words) ([3]; oral daily, Example Compound 11 40 mg/kg) |
| --- | --- | --- | --- | --- | --- |
| CC(C)(O)CCn1cc2cc(NC(=O)c3cccc(C(F)F)n3)c(C(C)(C)O)cc2n1 [Example 13, 6-(Difluoromethyl)-N-[2-(3-hydroxy-3-methylbutyl)-6-(2-hydroxypropan-2-yl)-2H-indazol-5-yl]pyridine-2-carboxamide] | distinct rise in antitumour action was almost always recorded | 100 nM |  |  |  |
| Cc1nc(C(=O)Nc2cc3cn(CCC(C)(C)O)nc3cc2C(C)(C)O)ccc1F [Example 19, 5-Fluoro-N-[2-(3-hydroxy-3-methylbutyl)-6-(2-hydroxypropan-2-yl)-2H-indazol-5-yl]-6-methylpyridine-2-carboxamide] | distinct rise in antitumour action was almost always recorded | 100 nM |  |  |  |
| C=CC(=O)N1CCC[C@@H](n2nc(-c3ccc(Oc4ccccc4)cc3)c3c(N)ncnc32)C1 [Ibrutinib, 1-{(3R)-3-[4-amino-3-(4-phenoxyphenyl)-1H-pyrazolo[3,4-d]pyrimidin-1-yl]piperidin-1-yl}prop-2-en-1-one] |  |  | 40% | −5% | moderate inhibitory effect |
